Source: patent US7192924B2, “Corticotropin releasing factor 2 receptor agonists” (priority 2002, dated 2007)
Where two headings read alike, the source gives them in different places. Peptide text beside a SMILES is read from it.

Legend:
CRF2R = biological target: T1, CRF2R (Homo sapiens, UniProt Q13324); assay: CRF2R agonist activity (EC50, Emax), called comparative CRF binding; format: cell-based
T1 sequence (Q13324 1-411): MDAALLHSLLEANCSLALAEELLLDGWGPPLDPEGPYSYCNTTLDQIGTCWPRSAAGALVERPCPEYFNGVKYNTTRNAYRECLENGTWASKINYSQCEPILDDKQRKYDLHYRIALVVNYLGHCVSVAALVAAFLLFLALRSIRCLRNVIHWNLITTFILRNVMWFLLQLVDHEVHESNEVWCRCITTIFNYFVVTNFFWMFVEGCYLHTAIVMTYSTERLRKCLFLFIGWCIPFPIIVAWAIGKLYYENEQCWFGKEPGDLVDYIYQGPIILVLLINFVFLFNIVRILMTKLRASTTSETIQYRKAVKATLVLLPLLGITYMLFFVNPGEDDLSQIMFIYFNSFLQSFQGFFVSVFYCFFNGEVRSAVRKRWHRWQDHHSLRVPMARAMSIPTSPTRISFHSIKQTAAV
Outline: (§1)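 Single-subtype CRFR cells, peptide vs vehicle, cAMP via CRE-reporter or lysate assay; background from other CRFR type subtracted if present.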

CRF1R = biological target: T2, CRF1R (Homo sapiens, UniProt P34998); assay: CRF1R agonist activity (EC50, Emax), called comparative CRF binding; format: cell-based
T2 sequence (P34998 24-415): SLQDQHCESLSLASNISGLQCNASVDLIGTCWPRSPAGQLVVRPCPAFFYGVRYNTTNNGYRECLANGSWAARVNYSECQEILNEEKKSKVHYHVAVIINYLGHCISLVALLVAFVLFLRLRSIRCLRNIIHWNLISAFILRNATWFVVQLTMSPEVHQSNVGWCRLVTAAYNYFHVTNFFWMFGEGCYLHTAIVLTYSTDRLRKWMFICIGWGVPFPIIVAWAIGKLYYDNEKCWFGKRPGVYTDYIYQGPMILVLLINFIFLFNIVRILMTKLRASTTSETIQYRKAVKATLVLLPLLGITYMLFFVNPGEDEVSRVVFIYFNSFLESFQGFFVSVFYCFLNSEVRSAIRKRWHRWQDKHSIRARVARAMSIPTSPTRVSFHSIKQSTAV
Outline: as §1

With `CC[C@H](C)[C@H](N)C(=O)N[C@H](C(=O)N[C@@H](CC(C)C)C(=O)N[C@@H](CO)C(=O)N[C@@H](CC(C)C)C(=O)N[C@@H](CC(=O)O)C(=O)N[C@H](C(=O)N1CCC[C@H]1C(=O)N[C@H](C(=O)NCC(=O)N[C@@H](CC(C)C)C(=O)N[C@@H](CC(C)C)C(=O)N[C@@H](CCC(N)=O)C(=O)N[C@H](C(=O)N[C@@H](CC(C)C)C(=O)N[C@@H](CC(C)C)C(=O)N[C@@H](CCC(=O)O)C(=O)N[C@@H](CCC(N)=O)C(=O)N[C@@H](CCCNC(=N)N)C(=O)N[C@@H](C)C(=O)N[C@@H](CCCNC(=N)N)C(=O)N[C@@H](C)C(=O)N[C@@H](C)C(=O)N[C@@H](CCCNC(=N)N)C(=O)N[C@@H](CCC(=O)O)C(=O)N[C@@H](CCC(N)=O)C(=O)N[C@@H](C)C(=O)N[C@H](C(=O)N[C@H](C(=O)N[C@@H](CC(N)=O)C(=O)N[C@@H](C)C(=O)N[C@@H](CCCNC(=N)N)C(=O)N[C@H](C(=O)N[C@@H](CC(C)C)C(=O)N[C@@H](C)C(=O)N[C@@H](CCCNC(=N)N)C(=O)N[C@H](C(N)=O)C(C)C)[C@@H](C)CC)[C@@H](C)O)[C@@H](C)O)[C@@H](C)CC)[C@@H](C)CC)C(C)C)C(C)C` [compound 137] (H-IVLSLDVPIGLLQILLEQRARAAREQATTNARILARV-NH2; N-terminus assumed) the EC50 (CRF2R; read-out: CRF2R EC50) was 36.9 nM and the EC50 (CRF1R; read-out: CRF1R EC50) was greater than 100 nM.
Compound `CC[C@H](C)[C@H](N)C(=O)N[C@H](C(=O)N[C@@H](CC(C)C)C(=O)N[C@@H](CO)C(=O)N[C@@H](CC(C)C)C(=O)N[C@@H](CC(=O)O)C(=O)N[C@H](C(=O)N1CCC[C@H]1C(=O)N[C@H](C(=O)NCC(=O)N[C@@H](CC(C)C)C(=O)N[C@@H](CC(C)C)C(=O)N[C@@H](CCC(N)=O)C(=O)N[C@H](C(=O)N[C@@H](CC(C)C)C(=O)N[C@H](C(=O)N[C@@H](CCC(=O)O)C(=O)N[C@H](C(=O)N[C@@H](CCC(=O)O)C(=O)N[C@@H](CCCCN)C(=O)N[C@@H](CCC(N)=O)C(=O)N[C@@H](CCC(=O)O)C(=O)N[C@@H](CCCCN)C(=O)N[C@@H](CCC(=O)O)C(=O)N[C@@H](CCCCN)C(=O)N[C@@H](CCC(N)=O)C(=O)N[C@@H](CCC(N)=O)C(=O)N[C@@H](C)C(=O)N[C@@H](C)C(=O)N[C@@H](CC(N)=O)C(=O)N[C@@H](CC(N)=O)C(=O)N[C@@H](CCCNC(=N)N)C(=O)N[C@@H](CC(C)C)C(=O)N[C@@H](CC(C)C)C(=O)N[C@@H](CC(C)C)C(=O)N[C@@H](CC(=O)O)C(=O)N[C@H](C(=O)N[C@H](C(N)=O)[C@@H](C)CC)[C@@H](C)O)[C@@H](C)CC)[C@@H](C)CC)[C@@H](C)CC)[C@@H](C)CC)C(C)C)C(C)C` [compound 154] (H-IVLSLDVPIGLLQILIEIEKQEKEKQQAANNRLLLDTI-NH2; N-terminus assumed) has an EC50 (CRF2R) of 10.3 nM and an EC50 (CRF1R) greater than 100 nM.
`CC[C@H](C)[C@H](N)C(=O)N[C@H](C(=O)N[C@@H](CC(C)C)C(=O)N[C@@H](CO)C(=O)N[C@@H](CC(C)C)C(=O)N[C@@H](CC(=O)O)C(=O)N[C@H](C(=O)N1CCC[C@H]1C(=O)N[C@H](C(=O)NCC(=O)N[C@@H](CC(C)C)C(=O)N[C@@H](CC(C)C)C(=O)N[C@@H](CCC(N)=O)C(=O)N[C@H](C(=O)N[C@@H](CC(C)C)C(=O)N[C@@H](CC(C)C)C(=O)N[C@@H](CCC(=O)O)C(=O)N[C@@H](CCSC)C(=O)N[C@H](C(=O)N[C@@H](CCCCN)C(=O)N[C@@H](C)C(=O)N[C@@H](CC(=O)O)C(=O)N[C@@H](CCC(N)=O)C(=O)N[C@@H](CC(C)C)C(=O)N[C@@H](C)C(=O)N[C@@H](CCC(N)=O)C(=O)N[C@@H](CCC(N)=O)C(=O)N[C@@H](C)C(=O)N[C@@H](Cc1c[nH]cn1)C(=O)N[C@@H](CO)C(=O)N[C@@H](CC(N)=O)C(=O)N[C@@H](CCCNC(=N)N)C(=O)N[C@@H](CCCCN)C(=O)N[C@@H](CC(C)C)C(=O)N[C@@H](CC(C)C)C(=O)N[C@@H](CC(=O)O)C(=O)N[C@H](C(=O)N[C@@H](C)C(N)=O)[C@@H](C)CC)[C@@H](C)O)[C@@H](C)CC)[C@@H](C)CC)C(C)C)C(C)C` [compound 155] (H-IVLSLDVPIGLLQILLEMTKADQLAQQAHSNRKLLDIA-NH2; N-terminus assumed) was tested, and the EC50 (CRF2R; read-out: CRF2R EC50) was 20.6 nM and the EC50 (CRF1R; read-out: CRF1R EC50) was 40.6 nM.
For `CC[C@H](C)[C@H](N)C(=O)N[C@H](C(=O)N[C@@H](CC(C)C)C(=O)N[C@@H](CO)C(=O)N[C@@H](CC(C)C)C(=O)N[C@@H](CC(=O)O)C(=O)N[C@H](C(=O)N1CCC[C@H]1C(=O)N[C@H](C(=O)NCC(=O)N[C@@H](CC(C)C)C(=O)N[C@@H](CC(C)C)C(=O)N[C@@H](CCC(N)=O)C(=O)N[C@H](C(=O)N[C@@H](CC(C)C)C(=O)N[C@@H](CC(C)C)C(=O)N[C@@H](CCC(=O)O)C(=O)N[C@@H](CCC(N)=O)C(=O)N[C@H](C(=O)N[C@@H](CCCCN)C(=O)N[C@@H](C)C(=O)N[C@@H](CC(=O)O)C(=O)N[C@@H](CCC(N)=O)C(=O)N[C@@H](CC(C)C)C(=O)N[C@@H](C)C(=O)N[C@@H](CCC(N)=O)C(=O)N[C@@H](CCC(N)=O)C(=O)N[C@@H](C)C(=O)N[C@@H](Cc1c[nH]cn1)C(=O)N[C@@H](CO)C(=O)N[C@@H](CC(N)=O)C(=O)N[C@@H](CCCNC(=N)N)C(=O)N[C@@H](CCCCN)C(=O)N[C@@H](CC(C)C)C(=O)N[C@@H](CC(C)C)C(=O)N[C@@H](CC(=O)O)C(=O)N[C@H](C(=O)N[C@@H](C)C(N)=O)[C@@H](C)CC)[C@@H](C)O)[C@@H](C)CC)[C@@H](C)CC)C(C)C)C(C)C` [compound 159] (H-IVLSLDVPIGLLQILLEQTKADQLAQQAHSNRKLLDIA-NH2; N-terminus assumed), the EC50 (CRF2R; read-out: CRF2R EC50) was 90.8 nM and the EC50 (CRF1R; read-out: CRF1R EC50) was greater than 100 nM.
`CC[C@H](C)[C@H](N)C(=O)N[C@H](C(=O)N[C@@H](CC(C)C)C(=O)N[C@@H](CO)C(=O)N[C@@H](CC(C)C)C(=O)N[C@@H](CC(=O)O)C(=O)N[C@H](C(=O)N1CCC[C@H]1C(=O)N[C@H](C(=O)NCC(=O)N[C@@H](CC(C)C)C(=O)N[C@@H](CC(C)C)C(=O)N[C@@H](CCC(N)=O)C(=O)N[C@H](C(=O)N[C@@H](CC(C)C)C(=O)N[C@@H](CC(C)C)C(=O)N[C@@H](CCC(=O)O)C(=O)N[C@@H](CC(C)C)C(=O)N[C@@H](C)C(=O)N[C@@H](CCCNC(=N)N)C(=O)N[C@H](C(=O)N[C@@H](CCC(N)=O)C(=O)N[C@@H](CO)C(=O)N[C@@H](CCC(N)=O)C(=O)N[C@@H](CCCNC(=N)N)C(=O)N[C@@H](CCC(=O)O)C(=O)N[C@@H](CCCNC(=N)N)C(=O)N[C@@H](C)C(=O)N[C@@H](CCC(=O)O)C(=O)N[C@@H](CCC(N)=O)C(=O)N[C@@H](CC(N)=O)C(=O)N[C@@H](CCCNC(=N)N)C(=O)N[C@H](C(=O)N[C@H](C(=O)N[C@@H](Cc1ccccc1)C(=O)N[C@@H](CC(=O)O)C(=O)N[C@@H](CO)C(=O)N[C@H](C(N)=O)C(C)C)[C@@H](C)CC)[C@@H](C)CC)[C@@H](C)O)[C@@H](C)O)[C@@H](C)CC)C(C)C)C(C)C` [compound 160] (H-IVLSLDVPIGLLQTLLELARTQSQRERAEQNRIIFDSV-NH2; N-terminus assumed) was tested, and the EC50 (CRF2R; read-out: CRF2R EC50) was 9.15 nM and the EC50 (CRF1R; read-out: CRF1R EC50) was greater than 100 nM.
